{"source": "patent US8741931B2", "about": "“Kinase inhibitors” (priority 2007, dated 2014)", "data": [{"target": "PKC delta kinase (Homo sapiens, UniProt Q05655)", "sequence (Q05655 whole entry)": "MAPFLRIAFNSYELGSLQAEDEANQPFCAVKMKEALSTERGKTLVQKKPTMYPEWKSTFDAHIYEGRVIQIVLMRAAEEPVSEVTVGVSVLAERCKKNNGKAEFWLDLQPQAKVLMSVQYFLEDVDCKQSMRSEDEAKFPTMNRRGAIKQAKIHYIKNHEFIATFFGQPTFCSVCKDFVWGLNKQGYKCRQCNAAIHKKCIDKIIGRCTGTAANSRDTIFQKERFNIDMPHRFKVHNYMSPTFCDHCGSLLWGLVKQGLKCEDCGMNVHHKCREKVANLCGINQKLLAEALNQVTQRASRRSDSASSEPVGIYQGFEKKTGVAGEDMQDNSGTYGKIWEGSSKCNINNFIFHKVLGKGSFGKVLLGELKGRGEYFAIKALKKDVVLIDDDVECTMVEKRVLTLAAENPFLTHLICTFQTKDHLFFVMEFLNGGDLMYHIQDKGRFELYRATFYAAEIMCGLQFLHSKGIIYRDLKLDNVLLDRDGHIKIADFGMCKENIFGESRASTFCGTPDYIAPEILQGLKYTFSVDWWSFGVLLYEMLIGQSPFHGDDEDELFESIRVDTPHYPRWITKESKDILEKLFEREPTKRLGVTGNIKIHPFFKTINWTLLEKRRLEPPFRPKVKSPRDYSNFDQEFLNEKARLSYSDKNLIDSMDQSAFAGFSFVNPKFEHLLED", "assay": "PKC Delta (coupled enzyme assay)", "type": "biochemical", "conditions": "not given", "description": "(§1) An assay buffer solution was prepared which consisted of 100 mM HEPES (pH 7.5), 10 mM MgCl2, 25 mM NaCl, 0.1 mM EDTA and 0.01% Brij. […] To 16 μL of this enzyme buffer, in a 384 well plate, was added 1 μL of VRT stock solution in DMSO. The mixture was allowed to equilibrate for 10 mins at 30° C. […] Ki values were calculated from initial rate data by non-linear regression using the Prism software package (Prism 4.0a, Graphpad Software, San Diego, Calif.).", "units": {"Ki": "nM"}, "values": [{"molecule": "CN1CCCN(c2cccc(C(=O)c3cccnc3N)n2)CC1", "note": "[compound 82]", "Ki": "500 to 2800"}]}, {"target": "PKC delta kinase (Homo sapiens, UniProt Q05655)", "assay": "PKC Delta (coupled enzyme assay)", "type": "biochemical", "conditions": "150 μM ATP, 46 nM PKC delta; read-out: Ki PKC delta", "description": "as §1", "units": {"Ki": "nM"}, "values": [{"molecule": "CC[C@@](CN)(CNc1ccc(C(F)(F)F)c(C(=O)c2cccnc2N)n1)c1ccccc1", "note": "[compound 462]", "Ki": "50 to 500"}, {"molecule": "COCC1CN(c2ccc(C(F)(F)F)c(C(=O)c3cccnc3N)n2)CCN1", "note": "(stereo not drawn) [compound 455]", "Ki": "500 to 2800"}, {"molecule": "CCN1CCCN(c2cccc(C(=O)c3cc(Br)cnc3N)n2)CC1", "note": "[compound 115]", "Ki": "50 to 500"}, {"molecule": "CC(C)C(=O)N1CCCN(c2cccc(C(=O)c3cc(Br)cnc3N)n2)CC1", "note": "[compound 71]", "Ki": "500 to 2800"}, {"molecule": "CC(C)N1CCCN(c2cccc(C(=O)c3cccnc3N)n2)CC1", "note": "[compound 116]", "Ki": "50 to 500"}, {"molecule": "CC(C)(C)CCN1CCCN(c2cccc(C(=O)c3cc(Br)cnc3N)n2)CC1", "note": "[compound 76]", "Ki": "500 to 2800"}, {"molecule": "CCC1CN(c2ccc(C(F)(F)F)c(C(=O)c3cccnc3N)n2)CCN1", "note": "(stereo not drawn) [compound 432]", "Ki": "50 to 500"}, {"molecule": "COCC#Cc1cnc(N)c(C(=O)c2cccc(N3CCCNCC3)n2)c1", "note": "[compound 138]", "Ki": "50 to 500"}, {"molecule": "Cn1cc(-c2cccc(C(=O)c3cccnc3N)n2)cn1", "note": "[compound 292]", "Ki": "> 2800"}, {"molecule": "CC(C)(C)CN1CCCN(c2cccc(C(=O)c3cccnc3N)n2)CC1", "note": "[compound 126]", "Ki": "500 to 2800"}, {"molecule": "Nc1ncc(Br)cc1C(=O)c1nc(N2CCC(N)CC2)cs1", "note": "[compound 134]", "Ki": "50 to 500"}, {"molecule": "Nc1ncc(Br)cc1C(=O)c1cccc(N2CCCN(CC3CC3)CC2)n1", "note": "[compound 113]", "Ki": "50 to 500"}, {"molecule": "Cc1sc(N2CCN[C@@H](CC(C)C)C2)nc1C(=O)c1cccnc1N", "note": "[compound 505]", "Ki": "50 to 500"}, {"molecule": "CC(C)C(O)C1CN(c2ccc(C(F)(F)F)c(C(=O)c3cccnc3N)n2)CCN1", "note": "(stereo not drawn) [compound 461]", "Ki": "50 to 500"}, {"molecule": "Cc1cnc(N)c(C(=O)c2nc(N3CCN[C@@H](CC(C)C)C3)ccc2C(F)(F)F)c1", "note": "[compound 499]", "Ki": "50 to 500"}, {"molecule": "Nc1ncccc1C(=O)c1cccc(N2CCCN(CC3CC3)CC2)n1", "note": "[compound 117]", "Ki": "50 to 500"}, {"molecule": "Nc1ncccc1C(=O)c1nc(OCCC(N)c2ccccc2)ccc1C(F)(F)F", "note": "(stereo not drawn) [compound 427]", "Ki": "50 to 500"}, {"molecule": "Nc1ncc(Br)cc1C(=O)c1cccc(N2CCCN(C(=O)Cc3cccc(O)c3)CC2)n1", "note": "[compound 70]", "Ki": "500 to 2800"}, {"molecule": "Nc1ncc(Br)cc1C(=O)c1cccc(N2CCC(N3CCCC3)CC2)n1", "note": "[compound 121]", "Ki": "50 to 500"}, {"molecule": "C=C(F)c1ccc(N2CCN[C@H](c3ccccc3)C2)nc1C(=O)c1cccnc1N", "note": "[compound 474]", "Ki": "50 to 500"}, {"molecule": "Nc1ncccc1C(=O)c1cccc(N2CCCN(C(=O)CC(F)(F)F)CC2)n1", "note": "[compound 23]", "Ki": "50 to 500"}, {"molecule": "CCCC1CN(c2ccc(C(F)(F)F)c(C(=O)c3cccnc3N)n2)CCCN1", "note": "(stereo not drawn) [compound 437]", "Ki": "50 to 500"}, {"molecule": "CC(C)C[C@H]1CN(c2ccc(C(F)(F)F)c(C(=O)c3cccnc3N)n2)CC2(CCC2)N1", "note": "[compound 471]", "Ki": "50 to 500"}, {"molecule": "CCC(N)(CNc1ccc(C(F)(F)F)c(C(=O)c2cccnc2N)n1)c1ccccc1", "note": "(stereo not drawn) [compound 444]", "Ki": "50 to 500"}, {"molecule": "Nc1ncccc1C(=O)c1nc(N2CCNC(CC3CC3)C2)ccc1C(F)(F)F", "note": "(stereo not drawn) [compound 441]", "Ki": "50 to 500"}, {"molecule": "Cc1ccsc1C(=O)N1CCCN(c2cccc(C(=O)c3cccnc3N)n2)CC1", "note": "[compound 27]", "Ki": "500 to 2800"}, {"molecule": "CCC(N)(COc1ccc(C(F)(F)F)c(C(=O)c2cccnc2N)n1)c1ccccc1", "note": "(stereo not drawn) [compound 440]", "Ki": "50 to 500"}, {"molecule": "Nc1ncccc1C(=O)c1cccc(N2CCCN(CCc3ccccc3)CC2)n1", "note": "[compound 120]", "Ki": "500 to 2800"}, {"molecule": "Nc1ncc(C(F)(F)F)cc1C(=O)c1cccc(N2CCCNCC2)n1", "note": "[compound 140]", "Ki": "50 to 500"}, {"molecule": "CC(C)C[C@H]1CN(c2ccc(C(F)(F)F)c(C(=O)c3cc(Cl)cnc3N)n2)CCN1", "note": "[compound 480]", "Ki": "50 to 500"}, {"molecule": "CC(C)(O)CC1CN(c2ccc(C(F)(F)F)c(C(=O)c3cccnc3N)n2)CCN1", "note": "(stereo not drawn) [compound 459]", "Ki": "50 to 500"}, {"molecule": "C[C@H]1CN(c2ccc(C(F)(F)F)c(C(=O)c3cccnc3N)n2)CCN1", "note": "[compound 478]", "Ki": "50 to 500"}, {"molecule": "CCC(=O)N1CCCN(c2cccc(C(=O)c3cccnc3N)n2)CC1", "note": "[compound 20]", "Ki": "500 to 2800"}, {"molecule": "C[C@@H]1CNCCN1c1ccc(C(F)(F)F)c(C(=O)c2cccnc2N)n1", "note": "[compound 484]", "Ki": "50 to 500"}, {"molecule": "CC(C)[C@H]1CN(c2ccc(C(F)(F)F)c(C(=O)c3cccnc3N)n2)C[C@H](c2ccccc2)N1", "note": "[compound 450]", "Ki": "50 to 500"}, {"molecule": "CCc1cnc(N)c(C(=O)c2cccc(N3CCCNCC3)n2)c1", "note": "[compound 105]", "Ki": "50 to 500"}, {"molecule": "CC(C)CC(C)(N)CNc1ccc(C(F)(F)F)c(C(=O)c2cccnc2N)n1", "note": "(stereo not drawn) [compound 443]", "Ki": "50 to 500"}, {"molecule": "CC[C@H]1CN(c2ccc(C(F)(F)F)c(C(=O)c3cccnc3N)n2)C[C@H](C(C)C)N1", "note": "[compound 473]", "Ki": "50 to 500"}, {"molecule": "Nc1ncccc1C(=O)c1nc(N2CC3CCC(C2)N3)ccc1C(F)(F)F", "note": "[compound 466]", "Ki": "50 to 500"}, {"molecule": "CC1CCCCC1C(=O)N1CCCN(c2cccc(C(=O)c3cccnc3N)n2)CC1", "note": "(stereo not drawn) [compound 93]", "Ki": "> 2800"}, {"molecule": "Cc1ccsc1CN1CCCN(c2cccc(C(=O)c3cccnc3N)n2)CC1", "note": "[compound 106]", "Ki": "500 to 2800"}, {"molecule": "CCc1cnc(N)c(C(=O)c2nc(N3CCN[C@@H](CC(C)C)C3)ccc2C(F)(F)F)c1", "note": "[compound 486]", "Ki": "50 to 500"}, {"molecule": "Nc1ncccc1C(=O)c1nc(N2CCNC(C3CC3)C2)ccc1C(F)(F)F", "note": "(stereo not drawn) [compound 442]", "Ki": "50 to 500"}, {"molecule": "CC(C)C[C@H]1CN(c2ccc(C(F)(F)F)c(C(=O)c3cc(Br)cnc3N)n2)CCN1", "note": "[compound 479]", "Ki": "50 to 500"}, {"molecule": "Nc1ncccc1C(=O)c1nc(N2CCN[C@@H](c3ccccc3)C2)ccc1C(F)(F)F", "note": "[compound 448]", "Ki": "50 to 500"}, {"molecule": "Nc1ncc(Cl)cc1C(=O)c1nc(N2CCNC(c3ccccc3)C2)ccc1C(F)(F)F", "note": "(stereo not drawn) [compound 496]", "Ki": "50 to 500"}, {"molecule": "CCCC1CN(c2ccc(C(F)(F)F)c(C(=O)c3cccnc3N)n2)CCN1", "note": "(stereo not drawn) [compound 434]", "Ki": "50 to 500"}]}, {"target": "PKC alpha kinase (Homo sapiens, UniProt P17252)", "assay": "PKC Alpha (coupled enzyme assay)", "type": "biochemical", "conditions": "130 μM ATP, 4.5 nM PKC alpha", "description": "as §1, with “EDTA, 100 μM CaCl2” for “EDTA”", "units": {"Ki": "nM"}, "values": [{"molecule": "C=C(F)c1ccc(N2CCNC(c3ccccc3)C2)nc1C(=O)c1cccnc1N", "note": "(stereo not drawn) [compound 457]", "Ki": "< 50"}, {"molecule": "Nc1ncccc1C(=O)c1nc(N2CCNC(c3cccc(Cl)c3)C2)ccc1C(F)(F)F", "note": "(stereo not drawn) [compound 497]", "Ki": "< 50"}, {"molecule": "C=C(F)c1ccc(N2CCNC(c3cccc(Cl)c3)C2)nc1C(=O)c1cccnc1N", "note": "(stereo not drawn) [compound 476]", "Ki": "< 50"}, {"molecule": "CCC[C@@H]1CN(c2ccc(C(F)(F)F)c(C(=O)c3cccnc3N)n2)C[C@H](CC(C)C)N1", "note": "[compound 494]", "Ki": "< 50"}, {"molecule": "NCC(CNc1ccc(C(F)(F)F)c(C(=O)c2cccnc2N)n1)c1ccccc1", "note": "(stereo not drawn) [compound 431]", "Ki": "< 50"}, {"molecule": "C=C(F)c1ccc(N2CCNC(C(F)(F)F)C2)nc1C(=O)c1cccnc1N", "note": "(stereo not drawn) [compound 504]", "Ki": "500 to 2800"}, {"molecule": "CC[C@](CN)(CNc1ccc(C(F)(F)F)c(C(=O)c2cccnc2N)n1)c1ccccc1", "note": "[compound 463]", "Ki": "< 50"}, {"molecule": "CC(C)C[C@H]1CN(c2ccc(-c3ccccc3F)c(C(=O)c3cccnc3N)n2)CCN1", "note": "[compound 435]", "Ki": "< 50"}, {"molecule": "C=C(F)c1ccc(N2CCN[C@@H](c3ccccc3)C2)nc1C(=O)c1cccnc1N", "note": "[compound 475]", "Ki": "< 50"}, {"molecule": "CC(C)C[C@H]1CN(c2ccc(C(F)(F)F)c(C(=O)c3cccnc3N)n2)C[C@@H](C)N1", "note": "[compound 490]", "Ki": "< 50"}, {"molecule": "C=C(F)c1ccc(N2CCN[C@@H](CC(C)C)C2)nc1C(=O)c1cccnc1N", "note": "[compound 424]", "Ki": "< 50"}, {"molecule": "CC[C@@H]1CN(c2ccc(C(F)(F)F)c(C(=O)c3cccnc3N)n2)C[C@H](CC(C)C)N1", "note": "[compound 488]", "Ki": "< 50"}]}]}
